Experiments:
[1] = target: T1, Carnitine O-palmitoyltransferase 2, mitochondrial (Homo sapiens, UniProt P23786); test: Inhibitory potency against Carnitine Palmitoyltransferase (CPT-II); Range = 32-235 uM
T1 sequence (P23786 whole entry): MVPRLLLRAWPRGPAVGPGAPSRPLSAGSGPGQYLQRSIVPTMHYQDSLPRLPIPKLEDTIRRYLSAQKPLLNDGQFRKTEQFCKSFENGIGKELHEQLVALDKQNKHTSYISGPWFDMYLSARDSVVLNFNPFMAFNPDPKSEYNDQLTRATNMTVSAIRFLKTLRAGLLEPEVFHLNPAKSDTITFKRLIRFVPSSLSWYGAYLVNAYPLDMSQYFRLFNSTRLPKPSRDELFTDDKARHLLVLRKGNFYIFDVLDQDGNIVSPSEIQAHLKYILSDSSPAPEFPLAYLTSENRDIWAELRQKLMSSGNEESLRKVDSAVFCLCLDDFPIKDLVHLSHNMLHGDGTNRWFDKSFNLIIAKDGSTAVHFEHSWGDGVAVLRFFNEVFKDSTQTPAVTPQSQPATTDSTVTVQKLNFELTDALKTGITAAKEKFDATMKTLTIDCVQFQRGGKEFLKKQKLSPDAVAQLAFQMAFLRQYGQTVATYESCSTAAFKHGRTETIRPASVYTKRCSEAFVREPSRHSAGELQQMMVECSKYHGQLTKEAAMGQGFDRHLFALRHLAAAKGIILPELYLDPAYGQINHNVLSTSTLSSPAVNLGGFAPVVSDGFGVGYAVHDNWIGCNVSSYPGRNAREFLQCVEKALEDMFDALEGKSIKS

[2] = target: T2, Peroxisomal carnitine O-octanoyltransferase (Homo sapiens, UniProt Q9UKG9); test: Inhibitory potency against carnitine octanoyltransferase (COT); Range = 1300-4000 uM
T2 sequence (Q9UKG9 whole entry): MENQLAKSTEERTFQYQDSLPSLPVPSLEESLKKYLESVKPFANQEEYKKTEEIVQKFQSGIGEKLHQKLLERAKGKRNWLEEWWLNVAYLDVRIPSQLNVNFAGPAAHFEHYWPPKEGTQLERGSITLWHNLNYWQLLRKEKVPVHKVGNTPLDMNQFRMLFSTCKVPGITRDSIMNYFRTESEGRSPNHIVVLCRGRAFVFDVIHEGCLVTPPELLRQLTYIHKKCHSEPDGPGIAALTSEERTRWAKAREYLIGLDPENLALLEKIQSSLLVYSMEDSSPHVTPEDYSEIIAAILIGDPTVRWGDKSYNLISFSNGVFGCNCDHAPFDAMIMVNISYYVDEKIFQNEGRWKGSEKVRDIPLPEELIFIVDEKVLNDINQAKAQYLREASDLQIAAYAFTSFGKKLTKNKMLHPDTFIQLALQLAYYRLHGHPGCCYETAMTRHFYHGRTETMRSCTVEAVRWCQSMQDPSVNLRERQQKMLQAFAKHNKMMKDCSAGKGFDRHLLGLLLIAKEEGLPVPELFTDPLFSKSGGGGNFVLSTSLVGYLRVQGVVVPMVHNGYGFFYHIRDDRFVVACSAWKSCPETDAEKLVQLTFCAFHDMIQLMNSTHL

IC50 [1]: 235 µM
IC50 [2]: 4000 µM
Structure (SMILES): CCCCCCCCCCCCCCCC[C@@]1(O)C[N+](C)(C)CCO1

From ChEMBL document CHEMBL1127274, “Evaluation of (2S,4S)/(2R,4R) and (2S,4R)/(2R,4S) 6,6-N,N-dimethyl-2-methyl-2-oxo-1,3-dioxa-4-hexadecyl-6,aza-2-phosphacyclooctane bromide as inhibitors for protein kinase C, carnitine octanoyltransferase, and carnitine palmitoyltransferase” (Bioorg Med Chem Lett, 1994)
